These compounds were tested against T1, binding of recombinant macrophage-tropic strain JR-FL gp120 to immobilized recombinant CD4 (Homo sapiens, UniProt P01730) (assay: gp120/CD4 binding assay (DELFIA competition assay, europium-labeled gp120, immobilized CD4)). Details: control substances used in optimizing the binding assay.
T1 construct: human CD4 (comprised of amino acids 1-371); made in house; host or cells: Sf9 insect cells, baculovirus vector pAcGP67
Design: species or system HIV (strain JR-FL) gp120; human CD4
Description: Coding sequences for gp120 (macrophage-tropic strain JR-FL) and human CD4 (comprised of amino acids 1-371) were sub-cloned into the commercial baculovirus expression vector pAcGP67 (Pharmingen, San Diego, Calif.). The recombinant vectors were then transfected into Sf9 insect cell monolayers using the Baculogold™ transfection system. Clones were isolated by the method of limited dilution.
For large-scale production, cell culture was scaled up in 8-liter spinner flasks of Sf9 cells adapted to serum-free growth conditions, then infected by baculovirus using an MOI of 5 and the cell supernatant was harvested 72 hours later. The yields of recombinant protein expressed for both proteins were similar; 2-5 μg/ml (micrograms per milliliter). Recombinant CD4 protein was immunopurified using an affinity-column of immobilized Anti-CD4 D1 mAb Leu3a (Dalgleish, A. G., et al., Lancet, 2:1047-1050 1987) and gp120 protein was immunopurified using a resin coupled with Propharmacon monoclonal antibody PPC3G6 produced in-house (mouse IgG2) against Sf9-produced gp120. Protein purity and molecular weight were assessed using reduced and non-reduced SDS PAGE.
The identification of inhibitors was carried out by a competition assay utilizing recombinant macrophage-tropic strain JR-FL gp120, which competes with a prospective inhibitor to bind to immobilized recombinant CD4. The amount of gp12O binding to CD4 was quantitated by DELFIA “Dissociation Enhanced Lanthanide Fluoroimmunoassay” (Paterson, N., et al., Ann. Clin Biochem., 22, 606-611, 1985), having previously labeled the gp120 with a commercial europium chelate (Wallac Oy, Turku, Finland). The final readout uses time-resolved fluorescence to quantitate the amount of dissociated europium metal present. Binding of labeled gp120 was saturable and yielded an IC50 of 3 nM, which approximates literature values (Lasky, L. A., et al., Cell, 50, 975-985). In addition, the binding of gp120 was inhibited by Leu3a with an IC50 of 2 μg/ml. […] The assay is optionally adapted to 384-well format for screening purposes.
In the case of `CC(C)CCC[C@@H](C)[C@H]1CC[C@H]2[C@@H]3CC[C@H]4C[C@@H](CCC=C(c5cc(Cl)c(O)c(C(=O)O)c5)c5cc(Cl)c(O)c(C(=O)O)c5)CC[C@]4(C)[C@H]3CC[C@]12C` [cosalane, reference compound], the “IC50, inhibition of binding of gp120 to immobilized CD4” value is reported as 4.3 µg/mL.

Same assay, conditions: control substances used in optimizing the binding assay; read-out: IC50, inhibition of binding of gp120 to immobilized CD4 (converted)
Compound `O=C(O)C1=CC(=C(c2ccc(O)c(C(=O)O)c2)c2ccc(O)c(C(=O)O)c2)C=CC1=O` [aurintricarboxylic acid, reference compound] has an IC50 of 1180 nM.

Same assay, conditions: gp120/CD4 binding assay; read-out: Activity (IC50 level in the gp120/CD4 binding assay)
In the case of `O=C(O)[C@H](Cc1ccccc1)NS(=O)(=O)c1cnc(N2CCC(CCCCCC3CCN(S(=O)(=O)c4cc(Br)c(Cl)s4)CC3)CC2)c(Br)c1`, the IC50 is reported as less than 1000 nM. With `O=C(O)CN(CCc1ccc(F)cc1)S(=O)(=O)c1cnc(N2CCC(CCCC3CCN(S(=O)(=O)c4cc(Br)c(Cl)s4)CC3)CC2)c(Br)c1` the IC50 was less than 1000 nM. Compound `O=C(NCCCCC(NS(=O)(=O)c1cnc(N2CCC(CCCC3CCN(S(=O)(=O)c4cc(Br)c(Cl)s4)CC3)CC2)c(Br)c1)C(=O)O)OCc1ccccc1Cl` (stereo not shown) has an IC50 of less than 1000 nM. Work on `O=C(O)[C@H](Cc1ccccc1)NS(=O)(=O)c1cnc(N2CCC(CCCCCCCC3CCN(S(=O)(=O)c4cc(Br)c(Cl)s4)CC3)CC2)c(Br)c1` yielded an IC50 of less than 1000 nM. `O=C(O)CC1Cc2ccccc2CN1S(=O)(=O)c1cnc(N2CCC(CCCCC3CCN(S(=O)(=O)c4cc(Br)c(Cl)s4)CC3)CC2)c(Br)c1` (stereo not shown) showed an IC50 of less than 1000 nM. For `O=C(O)C1(NS(=O)(=O)c2cnc(N3CCC(CCCC4CCN(S(=O)(=O)c5cc(Br)c(Cl)s5)CC4)CC3)c(Br)c2)CCCCC1`, the IC50 was less than 1000 nM. Work on `O=C(O)[C@H](Cc1ccccc1)NS(=O)(=O)c1cnc(N2CCC(CCCCC3CCN(S(=O)(=O)c4cc(Br)c(Cl)s4)CC3)CC2)c(C(F)(F)F)c1` yielded an IC50 of 1000 to 10000 nM. Work on `O=C(O)C[C@@H]1CCCN1S(=O)(=O)c1cnc(N2CCC(CCCC3CCN(S(=O)(=O)c4cc(Br)c(Cl)s4)CC3)CC2)c(Br)c1` yielded an IC50 of 1000 to 10000 nM. `O=C(O)[C@H](Cc1ccc(Cl)cc1)NS(=O)(=O)c1cnc(N2CCC(CCCCCC3CCN(S(=O)(=O)c4cc(Br)c(Cl)s4)CC3)CC2)c(Br)c1` was tested, and the IC50 was 1000 to 10000 nM. Work on `O=C(O)[C@H](Cc1ccccc1)NS(=O)(=O)c1ccc(N2CCC(CCCC3CCN(S(=O)(=O)c4cc(Br)c(Cl)s4)CC3)CC2)c(Cl)c1` yielded an IC50 of 1000 to 10000 nM. Work on `CSCC[C@H](NS(=O)(=O)c1ccc(N2CCC(CCCC3CCN(S(=O)(=O)c4ccc(C(C)(C)C)cc4)CC3)CC2)c(Cl)c1)C(=O)O` yielded an IC50 of 1000 to 10000 nM. `O=C(O)[C@@H]1CC[C@H](NS(=O)(=O)c2ccc(N3CCC(CCCC4CCN(S(=O)(=O)c5ccc(F)cc5)CC4)CC3)c(Cl)c2)C1` showed an IC50 greater than 10000 nM. `O=C(NO)[C@H]1CC[C@H](NS(=O)(=O)c2ccc(N3CCC(CCCC4CCN(S(=O)(=O)c5cc(Br)c(Cl)s5)CC4)CC3)c(Cl)c2)C1` showed an IC50 greater than 10000 nM. With `O=S(=O)(c1cnc(N2CCC(CCCC3CCN(S(=O)(=O)c4c(Cl)ccc5nonc45)CC3)CC2)c(Br)c1)N1CCCNCC1` the IC50 was greater than 10000 nM.

From patent US20060035932A1, “N-aryl piperidine compounds” (Propharmacon, Inc., priority 2004, published 2006)
